Measurements taken from patent US8618085B2, “Therapeutic formulations of desoxyepothilones” (Koasn Biosciences Incorporated, priority 2000, dated 2013).

Assay: Dilution stability of epothilone D formulations, visual appearance
Format: physicochemical
Set-up: key: remained clear; ppt: precipitation; xtal: crystallization
Settings: for Visual Appearance Initial: undiluted; for Visual Appearance Saline Dilution 0 h / Visual Appearance Saline Dilution 12 h: 1:10 into 0.45% saline; for Visual Appearance RODI Dilution 0 h / Visual Appearance RODI Dilution 12 h / Visual Appearance RODI Dilution 24 h / Visual Appearance RODI Dilution 36 h / Visual Appearance RODI Dilution 48 h: 1:10 into RODI water; for Visual Appearance Saline Dilution 1:08 1 h / Visual Appearance Saline Dilution 1:10 1 h / Visual Appearance Saline Dilution 1:12 1 h: 0.9% saline
Protocol: The dilution stability of epothilone D formulations at 8-20 mg/mL in various formulations was examined. A stock solution of epothilone D (100 mg/mL) was prepared in ethanol. Epothilone D formulations were prepared as listed in the following tables by addition of the requisite amount of ethanol, PEG400, 10% Tween® 80, and either propylene glycol or glycerol to the appropriate volume of the epothilone D stock solution. The solubility of epothilone D in each vial was observed visually following gentle swirling. Each formulation was syringe filtered through a 0.2 micron PVDF filter. Each formulation was subsequently diluted 1:8, 1:10, or 1:12 in reverse osmosis deionized water (RODI) or 0.9% saline. Visual observations were taken upon preparation, upon dilution, and both 1 and 24 hours after incubation at ambient temperature.
The dilution stability up to 48 hours post-dilution was examined for the above formulations containg 8-11 mg/mL of epothilone D after 1:10 dilution into either RODI water or 0.45% saline, as summarized in Tables 12 and 13 below.

[1] = 11 mg/mL epo D in 10% Tween 80, 50% ethanol, 30% PEG400, 10% propylene glycol
[2] = 11 mg/mL epo D in 10% Tween 80, 60% ethanol, 20% PEG400, 10% glycerol
[3] = 12 mg/mL epo D in 10% Tween 80, 50% ethanol, 30% PEG400, 10% propylene glycol
[4] = 12 mg/mL epo D in 10% Tween 80, 60% ethanol, 20% PEG400, 10% glycerol
[5] = 16 mg/mL epo D in 10% Tween 80, 50% ethanol, 30% PEG400, 10% propylene glycol
[6] = 16 mg/mL epo D in 10% Tween 80, 60% ethanol, 20% PEG400, 10% glycerol
[7] = 20 mg/mL epo D in 10% Tween 80, 50% ethanol, 30% PEG400, 10% propylene glycol
[8] = 20 mg/mL epo D in 10% Tween 80, 60% ethanol, 20% PEG400, 10% glycerol
[9] = Table 12: 10 mg/mL epo D in 10% Tween 80, 60% ethanol, 20% PEG400, 10% glycerol
[10] = Table 13: 10 mg/mL epo D in 10% Tween 80, 50% ethanol, 30% PEG400, 10% propylene glycol

C/C1=C/CC(/C(C)=C/c2csc(C)n2)OC(=O)C[C@H](O)C(C)(C)C(=O)[C@H](C)[C@@H](O)[C@@H](C)CCC1 (stereo partly drawn) [Epothilone D, Desoxyepothilone B]
xtal: Visual Appearance Saline Dilution 12 h [1] | Visual Appearance RODI Dilution 12 h [1] | Visual Appearance Saline Dilution 12 h [2] | Visual Appearance RODI Dilution 12 h [2] | Visual Appearance RODI Dilution 1:12 24 h [3] | Visual Appearance Saline Dilution 1:08 1 h [3] | Visual Appearance Saline Dilution 1:10 1 h [3] | Visual Appearance Saline Dilution 1:12 1 h [3] | Visual Appearance RODI Dilution 1:12 24 h [4] | Visual Appearance Saline Dilution 1:08 1 h [4] | Visual Appearance Saline Dilution 1:10 1 h [4] | Visual Appearance Saline Dilution 1:12 1 h [4] | Visual Appearance RODI Dilution 48 h [9]
clear: Visual Appearance Initial (10 mg/mL epo D in 10% Tween 80, 60% ethanol, 20% PEG400, 10% glycerol) | Visual Appearance Saline Dilution 0 h [1] | Visual Appearance RODI Dilution 0 h [1] | Visual Appearance Initial [1] | Visual Appearance Saline Dilution 0 h [2] | Visual Appearance RODI Dilution 0 h [2] | Visual Appearance Initial [2] | Visual Appearance RODI Dilution 1:08 0 h [3] | Visual Appearance RODI Dilution 1:08 24 h [3] | Visual Appearance RODI Dilution 1:10 0 h [3] | Visual Appearance RODI Dilution 1:10 24 h [3] | Visual Appearance RODI Dilution 1:12 0 h [3] | Visual Appearance Initial [3] | Visual Appearance RODI Dilution 1:08 0 h [4] | Visual Appearance RODI Dilution 1:08 24 h [4] | Visual Appearance RODI Dilution 1:10 0 h [4] | Visual Appearance RODI Dilution 1:10 24 h [4] | Visual Appearance RODI Dilution 1:12 0 h [4] | Visual Appearance Initial [4] | Visual Appearance Initial [5] | Visual Appearance Initial [6] | Visual Appearance Initial [7] | Visual Appearance Initial [8] | Visual Appearance Initial (Table 12: 8 mg/mL epo D in 10% Tween 80, 60% ethanol, 20% PEG400, 10% glycerol) | Visual Appearance Initial (Table 12: 9 mg/mL epo D in 10% Tween 80, 60% ethanol, 20% PEG400, 10% glycerol) | Visual Appearance RODI Dilution 0 h [9] | Visual Appearance RODI Dilution 12 h [9] | Visual Appearance RODI Dilution 24 h [9] | Visual Appearance RODI Dilution 36 h [9] | Visual Appearance Initial [9] | Visual Appearance Initial (Table 13: 8 mg/mL epo D in 10% Tween 80, 50% ethanol, 30% PEG400, 10% propylene glycol) | Visual Appearance Initial (Table 13: 9 mg/mL epo D in 10% Tween 80, 50% ethanol, 30% PEG400, 10% propylene glycol) | Visual Appearance RODI Dilution 0 h [10] | Visual Appearance RODI Dilution 12 h [10] | Visual Appearance RODI Dilution 24 h [10] | Visual Appearance RODI Dilution 36 h [10] | Visual Appearance RODI Dilution 48 h [10] | Visual Appearance Initial [10]
ppt: Visual Appearance RODI Dilution 1:08 0 h [5] | Visual Appearance RODI Dilution 1:10 0 h [5] | Visual Appearance RODI Dilution 1:12 0 h [5] | Visual Appearance Saline Dilution 1:08 1 h [5] | Visual Appearance Saline Dilution 1:10 1 h [5] | Visual Appearance Saline Dilution 1:12 1 h [5] | Visual Appearance RODI Dilution 1:08 0 h [6] | Visual Appearance RODI Dilution 1:10 0 h [6] | Visual Appearance RODI Dilution 1:12 0 h [6] | Visual Appearance Saline Dilution 1:08 1 h [6] | Visual Appearance Saline Dilution 1:10 1 h [6] | Visual Appearance Saline Dilution 1:12 1 h [6] | Visual Appearance RODI Dilution 1:08 0 h [7] | Visual Appearance RODI Dilution 1:10 0 h [7] | Visual Appearance RODI Dilution 1:12 0 h [7] | Visual Appearance Saline Dilution 1:08 1 h [7] | Visual Appearance Saline Dilution 1:10 1 h [7] | Visual Appearance Saline Dilution 1:12 1 h [7] | Visual Appearance RODI Dilution 1:08 0 h [8] | Visual Appearance RODI Dilution 1:10 0 h [8] | Visual Appearance RODI Dilution 1:12 0 h [8] | Visual Appearance Saline Dilution 1:08 1 h [8] | Visual Appearance Saline Dilution 1:10 1 h [8] | Visual Appearance Saline Dilution 1:12 1 h [8]
